In one data set the test system is β-actin. The data set can be described thus: β-actin control cell line (effects on transcription). The data set is classed as cell-based. The following applies: control for effects on transcription; FIG. 3. From the text:
The results of the above assays for a representative compound of this invention, 2-chloro-4-trifluoromethyl-5-N-(3',5'-bistrifluoromethylphenyl)pyrimidine carboxamide, as percent inhibition versus control are presented in FIG. 3. This figure also indicates activity of β-actin which was employed in these assays as a control cell line indicating effects on transcription.

In a further data set the test system is NFκB / AP-1. The data set can be described thus: Inhibition of the activation of NFκB and AP-1 (luciferase reporter Jurkat T-cells, PMA/PHA stimulated). The data set is classed as cell-based, human. As to conditions: stable Jurkat T-cells, read-out: NFκ/AP-1 IC50. As to the method:
Stable human Jurkat T-cells containing an NFκB binding site (from the MHC promoter) fused to a minimal SV-40 promoter driving luciferase expression were used in this experiment. Cells were split to 3×10^5 cells/mL every 2-3 days (cell concentration should not exceed 1×10^6 cells/mL to keep the cells proliferating in log phase). These cells were counted, resuspended in fresh medium containing 10% Serum-Plus at a density of 1×10^6 cells/mL and plated in 96 well round bottom plates (200 μL per well) 18 hours prior to starting the experiment.
Compounds of this invention, dissolved in dimethyl sulfoxide (3.3, 0.33 and 0.03 μg/mL), were then added to the 96 well plates containing the cells and the plates are incubated for 0.5 h at 37° C. Then 50 ng/mL of phorbol 12-myristate-13-acetate (PMA) and 1 μg/mL of phytohemagglutinin (PHA) was added to each well and the cells were incubated for an additional 5 h at 37° C. The plates were centrifuged at 2200 RPM for 3 minutes at room temperature and then the medium was removed. To each well was added 60 μL of cell lysis buffer and the plates were left at room temperature for 0.25 h. Then 40 μL of each cell extract was transferred to a black 96 well plate and 50 μL of luciferase substrate buffer was added. Luminescence was immediately measured using a Packard TopCount.
For AP-1, the assay was run as described above for NFκB except stable Jurkat T-cells were used that contained a the -73 collagenase promoter driving luciferase expression. In addition, the concentration of PMA used was 5 ng/mL.
(In general: A reporter such as luciferase makes a cellular process visible.)

For data set [1], the system named is alloantigen-induced PLN proliferation. The data set can be described thus: Murine popliteal lymph node (PLN) assay, graft vs. host model. The format is in vivo, C3H mice (donor BALB/c mice). From the text:
The murine popliteal lymph node (PLN) assay is a graft vs. host model that predicts activity of compounds in blocking human transplant rejection. The delayed-type hypersensitivity response to oxazolone is a standard contact sensitivity model. Both of these models are used routinely to evaluate compounds that are used clinically.
Spleens were removed from donor BALB/c mice and splenocytes were isolated then irradiated (3,000 rads) to prevent donor cell proliferation. After washing and adjusting cell density, 2.5×10^6 cells were injected subcutaneously into the left hind footpad of C3H mice. On day 4, the mice were sacrificed and left popliteal lymph nodes (PLNs) were weighed.
For doses of 10, 20 and 30 mg/kg, appropriate dilutions of the stock solution were made so that 0.1 mL/10 g body weight was administered by intraperitoneal injection.

For data set [2], the system named is DTH response to oxazolone. The data set can be described thus: Delayed type hypersensitivity study (oxazolone contact sensitivity model). The data set is classed as in vivo, mice. As to conditions: for Right-Left Ear (mean ± SEM): ear thickness difference 24 h after challenge, vehicle 0.30 ± 0.02.
Description: On day 0, oxazolone (100 μL of a 3% solution) was applied to the shaved abdomen of mice. On day 7, a challenge application of oxazolone was applied (10 μL) around the right ear. […] It was prepared immediately prior to use by suspending it in 0.25% methyl cellulose (Sigma) using a glass-teflon homogenizer. For each dose, 0.1 mL/10 g body weight of the suspension was administered. The compound was prepared at the highest concentration for that study and appropriate dilutions of the stock solution were made so that 0.1 mL/10 g body weight was administered. Twenty four hours later, the difference in right vs. left ear thickness was measured.
The subject of data set [3] is DTH response to oxazolone. As to conditions: Morris et al., Transplantation Proceedings 22(Suppl. 1):110-112, 1990; cited from earlier work.
Data set [4] deals with alloantigen-induced PLN proliferation. The following applies: Morris et al., Transplantation Proceedings 22(Suppl. 1):110-112, 1990; cited from earlier work.

Like-named read-outs stand apart in the source and are kept apart here.

`O=C(Nc1cc(C(F)(F)F)cc(C(F)(F)F)c1)c1cnc(Cl)nc1C(F)(F)F` [Example 1, 2-CHLORO-4-TRIFLUOROMETHYL-5-N-[3',5'-BIS(TRIFLUOROMETHYL)PHENYL]PYRIMIDINECARBOXAMIDE]: the “activity of β-actin (control cell line)” value in the data set on β-actin is “lack of β-actin activity”. Moreover, in the data set with NFκB / AP-1 (Homo sapiens), the IC50 was determined as 30 nM. Also, the “inhibition of PLN proliferation” value in data set [1] (10 mg/kg, once daily intraperitoneal, day 0 through day 4) came out at 52%. The “suppression of alloantigen-induced PLN proliferation (in words)” value in data set [1] (10, 20 and 30 mg/kg i.p.) is “dose-dependent suppression of alloantigen-induced PLN proliferation”. In addition, the “Right-Left Ear (mean ± SEM)” value amounted to 0.27 ± 0.01 in data set [2] (10 mg/kg (i.p.)) and 0.13 ± 0.02 in data set [2] (30 mg/kg (i.p.)). Besides, in data set [2] (30 mg/kg (i.p.)), the “animal deaths during study” value is given as “One animal died during study”. Further, in data set [2] (30 mg/kg i.p.), the “attenuation of the delayed-type response to oxazolone” value came to 56%. With `O=C(Nc1cc(Cl)cc(Cl)c1O)c1cnc(Cl)nc1C(F)(F)F` [Example 8, 2-CHLORO-4-TRIFLUOROMETHYL-5-N-(3',5'-DICHLORO-6'-HYDROXYPHENYL)PYRIMIDINE CARBOXAMIDE], the IC50 in the data set with NFκB / AP-1 (Homo sapiens) is 6000 nM. With `Cc1nc(Cl)ncc1C(=O)Nc1cc(C(F)(F)F)cc(C(F)(F)F)c1` [Example 39, 2-CHLORO-4-METHYL-5-N-[3',5'-BIS(TRIFLUOROMETHYL)PHENYL]PYRIMIDINE CARBOXAMIDE], in the data set on NFκB / AP-1 (Homo sapiens), the IC50 worked out at 75 nM. For the compound `O=C(Nc1cc(C(F)(F)F)cc(C(F)(F)F)c1)c1cnc(Cl)nc1Cl` [Example 41, 2,4-DICHLORO-5-N-[3',5'-BIS(TRIFLUOROMETHYL)PHENYL]PYRIMIDINE-5-CARBOXAMIDE], the IC50 in the data set with NFκB / AP-1 (Homo sapiens) amounted to 600 nM. For the compound `CN(C(=O)c1cnc(Cl)nc1C(F)(F)F)c1cc(Cl)cc(Cl)c1` [Example 13, 2-CHLORO-4-TRIFLUOROMETHYL-5-N-(3',5'-DICHLOROPHENYL)-5-N-(METHYL)PYRIMIDINE CARBOXAMIDE], the IC50 in the data set on NFκB / AP-1 (Homo sapiens) was determined as 5000 nM.

For `CC(=O)Nc1cc(NC(=O)c2cnc(Cl)nc2C(F)(F)F)ccc1F` [Example 10, 2-CHLORO-4-TRIFLUOROMETHYL-5-N-(3'-N-ACYL-4'-FLUORO-ANILINE)PYRIMIDINE CARBOXAMIDE], the IC50 with NFκB / AP-1 (Homo sapiens) turned out to be 1000 nM. On to `O=C(Nc1cc(C(F)(F)F)cc(C(F)(F)F)c1)c1cnc(Cl)nc1-c1ccccc1` [Example 43, 2-CHLORO-4-PHENYL-5-N-[3',5'-BIS(TRIFLUOROMETHYL)PHENYL]PYRIMIDINE CARBOXAMIDE], for which the IC50 in the data set on NFκB / AP-1 (Homo sapiens) was found to be 500 nM. With `NC(=O)c1cc(NC(=O)c2cnc(Cl)nc2C(F)(F)F)cc(C(F)(F)F)c1` [Example 11, 2-CHLORO-4-TRIFLUOROMETHYL-5-N-(3'-TRIFLUOROMETHYL-5'-CARBOXAMIDEPHENYL) PYRIMIDINE CARBOXAMIDE], the IC50 with NFκB / AP-1 (Homo sapiens) was found to be 5000 nM. On the same count and under the same terms, in the case of `N#Cc1ncc(C(=O)Nc2cc(C(F)(F)F)cc(C(F)(F)F)c2)c(C(F)(F)F)n1` [Example 42, 2-CYANO-4-TRIFLUOROMETHYL-5-N-[3',5'-BIS(TRIFLUOROMETHYL)PHENYL]PYRIMIDINE CARBOXAMIDE] it was above 10000 nM. For the compound `O=P1(N(CCCl)CCCl)NCCCO1` (stereo not shown) [Cyclophosphamide, reference compound], the “activity in the contact sensitivity model (in words)” value in data set [3] was “active”. In data set [2] (50 mg/kg (i.p.)), the “Right-Left Ear (mean ± SEM)” value amounted to 0.08 ± 0.01. Further, the “attenuation of the delayed-type response to oxazolone” value in data set [2] (50 mg/kg i.p.) came out at 73%. Besides, in data set [4], the “activity in the PLN model (in words)” value is reported as “active”.

In the case of `O=C(Nc1cc(Cl)c(Cl)c(Cl)c1)c1cnc(Cl)nc1C(F)(F)F` [Example 6, 2-CHLORO-4-TRIFLUOROMETHYL-5-N-(3',4',5'-TRICHLOROPHENYL)PYRIMIDINE CARBOXAMIDE], the IC50 in the data set on NFκB / AP-1 (Homo sapiens) was found to be 800 nM. Turning to `O=C(Nc1ccc(C(F)(F)F)cc1)c1cnc(Cl)nc1C(F)(F)F` [Example 2, 2-CHLORO-4-TRlFLUOROMETHYL-5-N(4'-TRIFLUOROMETHYLPHENYL)PYRIMIDINE CARBOXAMIDE], the IC50 in the data set on NFκB / AP-1 (Homo sapiens) was found to be 750 nM. For the compound `CCOC(=O)c1cc(NC(=O)c2cnc(Cl)nc2C(F)(F)F)cc(C(F)(F)F)c1` [Example 12, 2-CHLORO-4-TRIFLUOROMETHYL-5-N-(3'-TRIFLUOROMETHYL-5'-ETHOXYCARBONYLPHENYL)PYRIMIDINE CARBOXAMIDE], the IC50 in the data set with NFκB / AP-1 (Homo sapiens) turned out to be 400 nM. As to `Cc1nc(Cl)nc(Cl)c1C(=O)Nc1cc(C(F)(F)F)cc(C(F)(F)F)c1` [Example 15, 5-N-[3',5'-BIS(TRIFLUOROMETHYL)PHENYL]2,4-DICHLORO-6-METHYLPYRIMIDINE CARBOXAMIDE], the IC50 in the data set on NFκB / AP-1 (Homo sapiens) was determined as 800 nM. On to “2-[N-(1-AMINOCITRACONAMIDE)]-4-TRIFLUOROMETHYL-5-[N-(3',5'-DICHLOROPHENYL)]-PYRIMIDINE-5-CARBOXAMIDE [Example 45]”, for which the IC50 with NFκB / AP-1 was 2000 nM.

The record behind these values is US5811428A, “Pyrimidine carboxamides and related compounds and methods for treating inflammatory conditions” (Signal Pharmaceuticals, Inc., priority 1995, dated 1998).
